According to US12180193B2, “Accelerating fibrosarcoma protein degrading compounds and associated methods of use” (Arvinas Operations, Inc., priority 2020, dated 2024):

Key:
[1] = target: T1, BRAF V600E (Homo sapiens, UniProt P15056, V600E); assay: Cellular assay of target protein degradation, T-Rex 293 cells stably transfected with HA-BRAF_V600E (HA immunofluorescence, high content imaging); assay type: cell-based; conditions: T-Rex 293 HA-BRAF V600E; for DC50: half maximal degradation, read-out: BRaf V600E DC50; for Dmax: maximum degradation observed
T1 construct: expressed in transfected cells
T1 sequence (P15056 whole entry V600E): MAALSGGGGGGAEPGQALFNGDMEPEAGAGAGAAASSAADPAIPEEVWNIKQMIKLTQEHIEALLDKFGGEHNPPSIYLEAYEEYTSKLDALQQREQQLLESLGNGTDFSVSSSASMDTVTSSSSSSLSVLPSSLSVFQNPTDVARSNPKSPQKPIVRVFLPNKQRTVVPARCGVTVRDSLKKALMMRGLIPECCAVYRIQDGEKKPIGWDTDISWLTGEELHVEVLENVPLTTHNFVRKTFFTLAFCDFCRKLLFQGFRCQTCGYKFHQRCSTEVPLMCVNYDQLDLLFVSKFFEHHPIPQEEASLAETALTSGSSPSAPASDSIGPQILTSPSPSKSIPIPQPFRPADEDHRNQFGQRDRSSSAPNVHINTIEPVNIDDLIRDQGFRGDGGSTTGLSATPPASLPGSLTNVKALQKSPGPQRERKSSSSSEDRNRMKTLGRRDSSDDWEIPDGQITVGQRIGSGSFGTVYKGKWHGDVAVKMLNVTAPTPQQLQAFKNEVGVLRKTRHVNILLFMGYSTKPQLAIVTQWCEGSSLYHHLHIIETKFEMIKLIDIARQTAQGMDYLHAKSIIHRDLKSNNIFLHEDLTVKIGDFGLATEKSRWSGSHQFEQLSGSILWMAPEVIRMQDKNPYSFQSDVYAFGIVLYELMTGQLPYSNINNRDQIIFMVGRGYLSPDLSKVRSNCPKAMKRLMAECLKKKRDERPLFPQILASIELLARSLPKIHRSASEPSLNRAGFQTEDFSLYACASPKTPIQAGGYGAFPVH
In short: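 Degradation of the HA-tagged construct is measured after 24 h treatment at 37 °C across 1 μM to 0.1 nM in 0.1% DMSO, in doxycycline-induced (1 ng/mL) cells. DC50 and Dmax come from HA fluorescence imaging.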

[2] = target: T2, BRAF G466V (Homo sapiens, UniProt P15056, G466V); assay: Cellular assay of target protein degradation, T-Rex 293 cells stably transfected with HA-BRAF G466V (HA immunofluorescence, high content imaging); assay type: cell-based; conditions: T-Rex 293 HA-BRAF G466V; for DC50: half maximal degradation, read-out: BRaf G466V DC50; for Dmax: maximum degradation observed
T2 construct: expressed in transfected cells
T2 sequence (P15056 whole entry G466V): as the sequence (P15056 whole entry V600E) above, with G466V, E600V counted along it
In short: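 Dose range spans 30 nM to 3 pM (0.1% DMSO) over 24 hours at 37° C, in cells induced with 0.75 ng/mL doxycycline. Fixed cells are probed with anti-HA antibody overnight at 4° C, then imaged; half-maximal degradation and maximum degradation are derived.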

Row | SMILES | DC50 [1] [nM] | Dmax [1] [%] | DC50 [2] [nM] | Dmax [2] [%]
1 | C[C@H](c1ncc(-c2cnc3[nH]cc(C(=O)c4c(F)ccc(NS(=O)(=O)N5CC[C@@H](F)C5)c4F)c3c2)cn1)N1CCN(CC2CCN(c3ccc4c(c3)CN([C@H]3CCC(=O)NC3=O)C4=O)CC2)CC1 [Compound 290, (3R)-N-[3-(5-{2-[(1R)-1-{4-[(1-{2-[(3S)-2,6-dioxopiperidin-3-yl]-1-oxo-2,3-dihydro-1H-isoindol-5-yl}piperidin-4-yl)methyl]piperazin-1-yl}ethyl]pyrimidin-5-yl}-1H-pyrrolo[2,3-b]pyridine-3-carbonyl)-2,4-difluorophenyl]-3-fluoropyrrolidine-1-sulfonamide] | 50 to 500 | 35 to 70 | 1 to 10 | 35 to 70
2 | O=C1CCC(N2Cc3cc(N4CCC(C5CN(c6ccc(-c7cnc8[nH]cc(C(=O)c9c(F)ccc(NS(=O)(=O)N%10CC[C@@H](F)C%10)c9F)c8c7)cc6)C5)CC4)ccc3C2=O)C(=O)N1 (stereo partly drawn) [Compound 293, (3R)-N-(3-{5-[4-(3-{1-[2-(2,6-dioxopiperidin-3-yl)-1-oxo-2,3-dihydro-1H-isoindol-5-yl]piperidin-4-yl}azetidin-1-yl)phenyl]-1H-pyrrolo[2,3-b]pyridine-3-carbonyl}-2,4-difluorophenyl)-3-fluoropyrrolidine-1-sulfonamide] | 50 to 500 | 35 to 70 | 1 to 10 | 35 to 70
3 | O=C1CCC(N2Cc3cc(CCCOCC4CCN(c5ccc(-c6cnc7[nH]cc(C(=O)c8c(F)ccc(NS(=O)(=O)N9CC[C@@H](F)C9)c8F)c7c6)cc5)CC4)ccc3C2=O)C(=O)N1 (stereo partly drawn) [Compound 294, (3R)-N-[3-(5-{4-[4-({3-[2-(2,6-dioxopiperidin-3-yl)-1-oxo-2,3-dihydro-1H-isoindol-5-yl]propoxy}methyl)piperidin-1-yl]phenyl}-1H-pyrrolo[2,3-b]pyridine-3-carbonyl)-2,4-difluorophenyl]-3-fluoropyrrolidine-1-sulfonamide] | 50 to 500 | 35 to 70 | 1 to 10 | 35 to 70
4 | COc1cc([C@@H](O)CCN2CCN(c3ccc(-c4cnc5[nH]cc(C(=O)c6c(F)ccc(NS(=O)(=O)N7CC[C@@H](F)C7)c6F)c5c4)cc3)CC2)cc2c1C(=O)N([C@@H]1CCC(=O)NC1=O)C2 [Compound 296, (3R)-N-{3-[5-(4-{4-[(3S)-3-{2-[(3R)-2,6-dioxopiperidin-3-yl]-7-methoxy-1-oxo-2,3-dihydro-1H-isoindol-5-yl}-3-hydroxypropyl]piperazin-1-yl}phenyl)-1H-pyrrolo[2,3-b]pyridine-3-carbonyl]-2,4-difluorophenyl}-3-fluoropyrrolidine-1-sulfonamide] | 50 to 500 | 35 to 70 | 1 to 10 | 35 to 70
5 | O=C1CCC(N2Cc3cc(C4CCN(C[C@H]5CCN(c6ccc(-c7cnc8[nH]cc(C(=O)c9c(F)ccc(NS(=O)(=O)N%10CC[C@@H](F)C%10)c9F)c8c7)cc6)C[C@H]5F)CC4)ccc3C2=O)C(=O)N1 (stereo partly drawn) [Compound 297, (3R)-N-[3-(5-{4-[(3S,4R)-4-({4-[2-(2,6-dioxopiperidin-3-yl)-1-oxo-2,3-dihydro-1H-isoindol-5-yl]piperidin-1-yl}methyl)-3-fluoropiperidin-1-yl]phenyl}-1H-pyrrolo[2,3-b]pyridine-3-carbonyl)-2,4-difluorophenyl]-3-fluoropyrrolidine-1-sulfonamide] | 5 to 50 | 35 to 70 | < 1 | > 70
6 | O=C1CCC(N2Cc3cc(N4CCC(CN5CCN(C6(c7ncc(-c8cnc9[nH]cc(C(=O)c%10c(F)ccc(NS(=O)(=O)N%11CC[C@@H](F)C%11)c%10F)c9c8)cn7)CC6)CC5)CC4)ccc3C2=O)C(=O)N1 (stereo partly drawn) [Compound 298, (3R)-N-{3-[5-(2-{1-[4-({1-[2-(2,6-dioxopiperidin-3-yl)-1-oxo-2,3-dihydro-1H-isoindol-5-yl]piperidin-4-yl}methyl)piperazin-1-yl]cyclopropyl}pyrimidin-5-yl)-1H-pyrrolo[2,3-b]pyridine-3-carbonyl]-2,4-difluorophenyl}-3-fluoropyrrolidine-1-sulfonamide] | 50 to 500 | < 35 | < 1 | 35 to 70
7 | O=C1CCC(N2Cc3cc([C@H](O)CN4CC5(C4)CN(c4ccc(-c6cnc7[nH]cc(C(=O)c8c(F)ccc(NS(=O)(=O)N9CC[C@@H](F)C9)c8F)c7c6)cc4)C5)ccc3C2=O)C(=O)N1 (stereo partly drawn) [Compound 299, (3R)-N-{3-[5-(4-{6-[(2S)-2-[2-(2,6-dioxopiperidin-3-yl)-1-oxo-2,3-dihydro-1H-isoindol-5-yl]-2-hydroxyethyl]-2,6-diazaspiro[3.3]heptan-2-yl}phenyl)-1H-pyrrolo[2,3-b]pyridine-3-carbonyl]-2,4-difluorophenyl}-3-fluoropyrrolidine-1-sulfonamide] | 5 to 50 | 35 to 70 | 1 to 10 | > 70
8 | O=C1CC[C@H](N2Cc3cc([C@@H](O)CCN4CCN(c5ccc(-c6cnc7[nH]cc(C(=O)c8c(F)ccc(NS(=O)(=O)N9CC[C@@H](F)C9)c8F)c7c6)cc5)CC4)c(F)cc3C2=O)C(=O)N1 [Compound 300, (3R)-N-{3-[5-(4-{4-[(3S)-3-{2-[(3S)-2,6-dioxopiperidin-3-yl]-6-fluoro-1-oxo-2,3-dihydro-1H-isoindol-5-yl}-3-hydroxypropyl]piperazin-1-yl}phenyl)-1H-pyrrolo[2,3-b]pyridine-3-carbonyl]-2,4-difluorophenyl}-3-fluoropyrrolidine-1-sulfonamide] | 50 to 500 | 35 to 70 | < 1 | 35 to 70
9 | O=C1CC[C@@H](N2Cc3cc([C@@H](O)CCN4CCN(c5ccc(-c6cnc7[nH]cc(C(=O)c8c(F)ccc(NS(=O)(=O)N9CC[C@@H](F)C9)c8F)c7c6)cc5)CC4)c(F)cc3C2=O)C(=O)N1 [Compound 301, (3R)-N-{3-[5-(4-{4-[(3S)-3-{2-[(3R)-2,6-dioxopiperidin-3-yl]-6-fluoro-1-oxo-2,3-dihydro-1H-isoindol-5-yl}-3-hydroxypropyl]piperazin-1-yl}phenyl)-1H-pyrrolo[2,3-b]pyridine-3-carbonyl]-2,4-difluorophenyl}-3-fluoropyrrolidine-1 sulfonamide] | 50 to 500 | 35 to 70 | < 1 | > 70
10 | O=C1CCC(N2Cc3cc(N4CCC(CC5CN(c6ccc(-c7cnc8[nH]cc(C(=O)c9c(F)ccc(NS(=O)(=O)N%10CC[C@@H](F)C%10)c9F)c8c7)cc6)C5)CC4)ccc3C2=O)C(=O)N1 (stereo partly drawn) [Compound 302, (3R)-N-[3-(5-{4-[3-({1-[2-(2,6-dioxopiperidin-3-yl)-1-oxo-2,3-dihydro-1H-isoindol-5-yl]piperidin-4-yl}methyl)azetidin-1-yl]phenyl}-1H-pyrrolo[2,3-b]pyridine-3-carbonyl)-2,4-difluorophenyl]-3-fluoropyrrolidine-1-sulfonamide] | 50 to 500 | 35 to 70 | 1 to 10 | 35 to 70
11 | O=C1CCC(N2Cc3cc(N4CC(CN5CCC(Cc6ccc(-c7cnc8[nH]cc(C(=O)c9c(F)ccc(NS(=O)(=O)N%10CC[C@@H](F)C%10)c9F)c8c7)cc6)CC5)C4)ccc3C2=O)C(=O)N1 (stereo partly drawn) [Compound 303, (3R)-N-{3-[5-(4-{[1-({1-[2-(2,6-dioxopiperidin-3-yl)-1-oxo-2,3-dihydro-1H-isoindol-5-yl]azetidin-3-yl}methyl)piperidin-4-yl]methyl}phenyl)-1H-pyrrolo[2,3-b]pyridine-3-carbonyl]-2,4-difluorophenyl}-3-fluoropyrrolidine-1-sulfonamide] | 5 to 50 | 35 to 70 | 1 to 10 | > 70
12 | O=C1CCC(N2Cc3cc(N4CC(CN5CCC(C6(c7ccc(-c8cnc9[nH]cc(C(=O)c%10c(F)ccc(NS(=O)(=O)N%11CC[C@@H](F)C%11)c%10F)c9c8)cc7)CC6)CC5)C4)ccc3C2=O)C(=O)N1 (stereo partly drawn) [Compound 304, (3R)-N-{3-[5-(4-{1-[1-({1-[2-(2,6-dioxopiperidin-3-yl)-1-oxo-2,3-dihydro-1H-isoindol-5-yl]azetidin-3-yl}methyl)piperidin-4-yl]cyclopropyl}phenyl)-1H-pyrrolo[2,3-b]pyridine-3-carbonyl]-2,4-difluorophenyl}-3-fluoropyrrolidie-1-sulfonamide] | 50 to 500 | 35 to 70 | 1 to 10 | 35 to 70
13 | O=C1CCC(N2Cc3cc(N4CC(CC5CCN(c6ccc(-c7cnc8[nH]cc(C(=O)c9c(F)ccc(NS(=O)(=O)N%10CC[C@@H](F)C%10)c9F)c8c7)cc6)CC5)C4)ccc3C2=O)C(=O)N1 (stereo partly drawn) [Compound 306, (3R)-N-[3-(5-{4-[4-({1-[2-(2,6-dioxopiperidin-3-yl)-1-oxo-2,3-dihydro-1H-isoindol-5-yl]azetidin-3-yl}methyl)piperidin-1-yl]phenyl}-1H-pyrrolo[2,3-b]pyridine-3-carbonyl)-2,4-difluorophenyl]-3-fluoropyrrolidine-1-sulfonamide] | 50 to 500 | 35 to 70 | 1 to 10 | 35 to 70
14 | O=C1CCC(N2Cc3cc(N4CCC(CN5CC(Cc6ncc(-c7cnc8[nH]cc(C(=O)c9c(F)ccc(NS(=O)(=O)N%10CC[C@@H](F)C%10)c9F)c8c7)cn6)C5)CC4)ccc3C2=O)C(=O)N1 (stereo partly drawn) [Compound 307, (3R)-N-{3-[5-(2-{[1-({1-[2-(2,6-dioxopiperidin-3-yl)-1-oxo-2,3-dihydro-1H-isoindol-5-yl]piperidin-4-yl}methyl)azetdidin-3-yl]methyl}pyrimidin-5-yl)-1H-pyrrolo[2,3-b]pyridine-3-carbonyl]-2,4-difluorophenyl}-3-fluoropyrrolidine-1-sulfonamide] | > 500 | > 70 | 1 to 10 | 35 to 70
